pIC50: −log10 of the molar value. ≈ marks a conversion by molar mass, not a printed value. Like-named read-outs stand apart in the source and are kept apart here.
Molecular target: T1, Human Polymorphonuclear Leukocyte Elastase (Homo sapiens, UniProt P08246)
T1 sequence (P08246 30-247 limits assumed): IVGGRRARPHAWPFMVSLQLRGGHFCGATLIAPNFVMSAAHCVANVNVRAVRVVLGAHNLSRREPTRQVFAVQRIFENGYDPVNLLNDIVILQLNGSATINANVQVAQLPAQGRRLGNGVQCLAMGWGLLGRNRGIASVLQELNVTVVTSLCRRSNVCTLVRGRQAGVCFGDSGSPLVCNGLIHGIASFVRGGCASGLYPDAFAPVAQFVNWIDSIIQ
Test: biochemical
Details: for IC50 / ED50: 50% inhibition of the enzyme activity 2 minutes after zero time, crude PMN extract, pH 7.5, 0.2 mM Boc-AAPAN; for IC50: read-out: ED50 (the source's name) (converted)
Description: Protocol--Enzyme Assays for the Inhibition of Human Polymorphonuclear Leukocyte Elastase Via Hydrolysis of N-t-Boc-alanyl-alanyl-prolylalanine-p-nitroanilide Reagents:
0.05M TES (N-tris[hydroxymethyl]methyl-2-amino-ethanesulfonic acid) Buffer, pH 7.5.
0.2 mMN-t-Boc-alanyl -alanyl -prolyl-alanine-p-nitroanilide (Boc-AAPAN).
To prepare substrate, the solid (m.w. 550) was first dissolved in 10.0 ml DMSO. Buffer at pH 7.5 was then added to a final volume of 100 ml.
Crude extract of human polymorphonuclear leukocytes (PMN) containing elastase activity.
Inhibitors (cephalosporin sulfone esters) to be tested dissolved in DMSO just before use.
To 1.0 ml of 0.2 mM Boc-AAPAN in a cuvette, 0.01-0.1 ml of DMSO with or without inhibitor was added. After mixing, a measurement was taken at 410 mμ to detect any spontaneous hydrolysis due to presence of test compound. 0.05 Milliliters of PMN extract was then added and the ΔOD/min at 410 mμ was measured and recorded. Beckman model 35 spectrophotometer was used.
The elastase activity in the crude PMN extract may vary from one preparation to another. A control of each new batch is run, and the volume added in the assay procedure is adjusted according to activity.

IC50 (Table II) [nM]	Structure (SMILES)	also measured
–	CC(=O)OCC1=C(C(=O)OC(C)(C)C)N2C(=O)C(Cl)(Cl)C2S(=O)(=O)C1 (centres unmarked)	IC50 (Table IIa): 241 nM
–	CC(=O)OCC1=C(C(=O)OC(C)(C)C)N2C(=O)C(F)(F)C2S(=O)(=O)C1 (centres unmarked)	IC50 (Table IIa): 131 nM
1250	COC1C(=O)N2C(C(=O)OC(C)(C)C)=C(COC(=O)c3ccccc3C(=O)O)CS(=O)(=O)C12 (centres unmarked)	–
2580	COC1C(=O)N2C(C(=O)OCC=C(C)C)=C(COC(C)=O)CS(=O)(=O)C12 (centres unmarked)	–
37.8	COC1C(=O)N2C(C(=O)OC(C)(C)C)=C(COC(C)=O)C(CS(=O)(=O)c3ccccc3)S(=O)(=O)C12 (centres unmarked)	–
733	COC(=O)c1cccc(COC(=O)C2=C(C)CS(=O)(=O)C3C(OC)C(=O)N23)c1 (centres unmarked)	–
–	CO[C@H]1C(=O)N2C(C(=O)OC(C)(C)C)=C(CS(=O)(=O)c3ccccc3)CS(=O)(=O)C12 (single isomer, unassigned) [R1=OCH3, M=CH2SO2.phi., B=OtBu, Q=H, t-Butyl 3-phenylsulfonylmethyl-7α-methoxy-8-oxo-5-thia-1-azabicyclo[4.2.0]oct-2-ene-2-carboxylate-5,5-dioxide]	pIC50: 6.36
–	CO[C@H]1C(=O)N2C(C(=O)OC(C)(C)C)=C(C[S+]([O-])c3ccccc3)CS(=O)(=O)C12 (single isomer, unassigned) [R1=OCH3, M=CH2SO.phi., B=OtBu, Q=H, t-Butyl 3-phenylsulfinylmethyl-7α-methoxy-8-oxo-5-thia-1-azabicyclo[4.2.0]oct-2-ene-2-carboxylate-5,5-dioxide]	pIC50: 6.74
1850	CCC1C(=O)N2C(C(=O)OC(C)(C)C)=C(COC(=O)CCC(=O)O)CS(=O)(=O)C12 (centres unmarked) [R1=C2H5, M=CH2OCOCH2CH2COOH, B=OtBu, Q=H]	–
982	CCC1C(=O)N2C(C(=O)OCc3ccccc3)=C(COC(C)=O)CS(=O)(=O)C12 (centres unmarked) [R1=C2H5, M=CH2OCOCH3, B=OCH2.phi., Q=H]	–
2240	CCC1C(=O)N2C(C(=O)OC(C)(C)C)=C(COC(=O)NC(C)C(=O)O)CS(=O)(=O)C12 (centres unmarked) [R1=C2H5, M=drawing 31, B=OtBu, Q=H]	–
861	CCC1C(=O)N2C(C(=O)OC(C)(C)C)=C(COC(=O)C(N)c3ccccc3)CS(=O)(=O)C12 (centres unmarked) [R1=C2H5, M=drawing 32, B=OtBu, Q=H]	–
–	CC(=O)OCC1=C(C(=O)OC(C)(C)C)N2C(=O)[C@H](Cl)[C@H]2S(=O)(=O)C1 [R1=Cl, M=CH2OCOCH3, B=OtBu, Q=H, t-Butyl 3-acetyloxymethyl-7α-chloro-8-oxo-5-thia-1-azabicyclo[4.2.0]oct-2-ene-2-carboxylate-5.5-dioxide]	pIC50: 7.28
–	CC(=O)OCC1=C(C(=O)OC(C)(C)C)N2C(=O)[C@H](F)[C@H]2S(=O)(=O)C1 [R1=F, M=CH2OCOCH3, B=OtBu, Q=H, t-Butyl 3-acetyloxymethyl-7α-fluoro-8-oxo-5-thia-1-azabicyclo[4.2.0]oct-2-ene-2-carboxylate-5,5-dioxide]	pIC50: 7.08
–	CC(=O)OCC1=C(C(=O)OC(C)(C)C)N2C(=O)C(Oc3ccccc3)C2S(=O)(=O)C1 (centres unmarked) [R1=OC6H5, M=CH2OCOCH3, B=OtBu, Q=H]	pIC50: 5.74
–	CO[C@H]1C(=O)N2C(C(=O)OC(C)(C)C)=C(CCl)CS(=O)(=O)C12 (stereo partly drawn) [R1=OCH3, M=CH2Cl, B=OtBu, Q=H, t-Butyl 3-chloromethyl-7α-methoxy-8-oxo-5-thia-1-azabicyclo[4.2.0]oct-2-ene-2-carboxylate-5,5-dioxide]	ED50 (Table II): 0.15 µg/mL (≈ 0.426 µM)
–	COCC1=C(C(=O)OC(C)(C)C)N2C(=O)[C@H](OC)C2S(=O)(=O)C1 (some centres unmarked) [R1=OCH3, M=CH2OCH3, B=OtBu, Q=H]	pIC50: 6.06
231	CO[C@H]1C(=O)N2C(C(=O)OC(C)(C)C)=C(COC(=O)CCC(=O)O)CS(=O)(=O)C12 (stereo partly drawn) [R1=OCH3, M=CH2OCOCH2CH2COOH, B=OtBu, Q=H, t-Butyl 3-(3-[hydroxycarbonyl]Propanoyloxymethyl)-7α-methoxy-8-oxo-5-thia-1-azabicyclo[4.2.0]oct-2-ene-2-carboxylate-5,5-dioxide]	–
742	CNCC(=O)OCC1=C(C(=O)OC(C)(C)C)N2C(=O)C(OC)C2S(=O)(=O)C1 (centres unmarked) [R1=OCH3, M=CH2OCOCH2NHCH3, B=OtBu, Q=H]	–

IC50 (Table II) [nM]	Structure (SMILES)	also measured
1730	COC1C(=O)N2C(C(=O)N(C)C)=C(COC(C)=O)CS(=O)(=O)C12 (centres unmarked) [R1=OCH3, M=CH2OCOCH3, B=N(CH3)2, Q=H]	–
–	CO[C@H]1C(=O)N2C(C(=O)OCc3ccccc3)=C(COC(C)=O)CS(=O)(=O)[C@H]12 [R1=OCH3, M=CH2OCOCH3, B=OCH2.phi., Q=H, Benzyl 3-acetyloxymethyl-7α-methoxy-8-oxo-5-thia-1-azabicyclo[4.2.0]oct-2-ene-2-carboxylate-5,5-dioxide]	pIC50: 7.14
47.9	COC1C(=O)N2C(C(=O)OCC(=O)C(C)(C)C)=C(COC(C)=O)CS(=O)(=O)C12 (centres unmarked) [R1=OCH3, M=CH2OCOCH3, B=OCH2COtBu, Q=H]	–
–	COC(=O)C1=C(COC(C)=O)CS(=O)(=O)C2C(OC)C(=O)N12 (centres unmarked) [R1=OCH3, M=CH2OCOCH3, B=OCH3, Q=H]	pIC50: 6.62
77.4	C=C1C(COC(C)=O)=C(C(=O)OC(C)(C)C)N2C(=O)[C@H](OC)[C@H]2S1(=O)=O [R1=OCH3, M=CH2OCOCH3, B=OtBu, Q=CH2, t-Butyl 3-acetyloxymethyl-7α-methoxy-4-methylene-8-oxo-5-thia-1-azabicyclo [4.2.0]oct-2-ene-2-carboxylate-5,5-dioxide]	–
32200	COC1C(=O)N2C(C(=O)OC(C)(C)C)=C(COC(C)=O)C(Cc3ccccc3)S(=O)(=O)C12 (centres unmarked) [R1=OCH3, M=CH2OCOCH3, B=OtBu, Q=CH2.phi.]	–
77	CO[C@H]1C(=O)N2C(C(=O)OC(C)(C)C)=C(COC(C)=O)C(C)S(=O)(=O)[C@H]12 (some centres unmarked) [R1=OCH3, M=CH2OCOCH3, B=OtBu, Q=CH3]	–
1330	CO[C@H]1C(=O)N2C(C(=O)OC(C)(C)C)=C(COC(C)=O)CS(=O)(=O)[C@H]12 [R1=OCH3, M=CH2OCOCH3, B=OtBu, Q=H, t-Butyl-3-acetyloxymethyl-7α-methoxy-8-oxo-5-thia-1-azabicyclo[4.2.0]oct-2-ene-2-carboxylate-5,5-dioxide]	–
12000	COC1C(=O)N2C(C(=O)N3CCC[C@H]3C(=O)O)=C(COC(C)=O)CS(=O)(=O)C12 (some centres unmarked) [R1=OCH3, M=CH2OCOCH3, B=drawing 33, Q=H]	–
92.1	CO[C@H]1C(=O)N2C(C(=O)OC(C)(C)C)=C(COC(=O)NCC(=O)O)CS(=O)(=O)C12 (stereo partly drawn) [R1=OCH3, M=CH2OCONHCH2COOH, B=OtBu, Q=H, t-Butyl 3-hydroxycarbonylmethylaminocarbonyloxymethyl-7α-methoxy-8-oxo-5-thia-1-azabicyclo[4.2.0]oct-2-ene-2-carboxylate-5,5-dioxide]	–
740	CCOC(=O)OCC1=C(C(=O)OC(C)(C)C)N2C(=O)C(OC)C2S(=O)(=O)C1 (centres unmarked) [R1=OCH3, M=CH2OCOOC2H5, B=OtBu, Q=H]	–
2400	COC1C(=O)N2C(C(=O)OC(C)(C)C)=C(CO)CS(=O)(=O)C12 (centres unmarked) [R1=OCH3, M=CH2OH, B=OtBu, Q=H]	–
–	CO[C@H]1C(=O)N2C(C(=O)OC(C)(C)C)=C(CSc3ccccc3)CS(=O)(=O)C12 (stereo partly drawn) [R1=OCH3, M=CH2S.phi., B=OtBu, Q=H, t-Butyl 3-phenylthiomethyl-7α-methoxy-8-oxo-5-thia-1-azabicyclo[4.2.0]oct-2-ene-2-carboxylate-5,5-dioxide]	ED50 (Table II): 0.4 µg/mL (≈ 0.94 µM)
253	COC1C(=O)N2C(C(=O)OC(C)(C)C)=C(CS(C)(=O)=O)CS(=O)(=O)C12 (centres unmarked) [R1=OCH3, M=CH2SO2CH3, B=OtBu, Q=H]	–
1440	CCOC(=O)COC(=O)C1=C(C)CS(=O)(=O)C2C(OC)C(=O)N12 (centres unmarked) [R1=OCH3, M=CH3, B=OCH2COOC2H5, Q=H]	–
–	CO[C@H]1C(=O)N2C(C(=O)OC(C)(C)C)=C(C)CS(=O)(=O)C12 (stereo partly drawn) [R1=OCH3, M=CH3, B=OtBu, Q=H, t-Butyl 3-methyl-7α-methoxy-8-oxo-5-thia-1-azabicyclo [4.2.0]oct-2-ene-2-carboxylate-5,5-dioxide]	ED50 (Table II): 1.0 µg/mL (≈ 3.15 µM)
28.8	CO[C@H]1C(=O)N2C(C(=O)OC(C)(C)C)=C(C(=O)O)CS(=O)(=O)C12 (stereo partly drawn) [R1=OCH3, M=COOH, B=OtBu, Q=H, t-Butyl 3-hydroxycarbonyl-7α-methoxy-8-oxo-5-thia-1-azabicyclo[4.2.0]oct-2-ene-2-carboxylate-5,5 dioxide]	–
676	COC(=O)C1=C(Cl)CS(=O)(=O)C2[C@@H](OC)C(=O)N12 (stereo partly drawn) [R1=OCH3, M=Cl, B=OCH3, Q=H, Methyl-3-chloro-7α-methoxy-8-oxo-5-thia-1-azabicyclo[4.2.0]oct-2-ene-2-carboxylate-5,5-dioxide]	–

Structure (SMILES)	IC50 (Table II) [nM]	also measured
CO[C@H]1C(=O)N2C(C(=O)NCC(=O)OC(C)(C)C)=C(COC(C)=O)CS(=O)(=O)[C@H]12 [R1=OCH3, M=CH2OCOCH3, B=NHCH2COOtBu, Q=H, N-(t-Butoxycarbonyl)methyl 3-acetyloxymethyl-7α-methoxy-8-oxo-5-thia-1-azabicyclo[4.2.0]oct-2-ene-2-carboxamide-5,5 dioxide]	2080	–

Reference: patent US5364848A, “Substituted cephalosporin sulfones as anti-inflammatory and antidegenerative agents” (Merck & Co., Inc., priority 1992, dated 1994)
